The values that follow come from ChEMBL document CHEMBL1201862, “PubChem BioAssay data set” (2004).

Among the test systems are Hs-578T; DU-145; SK-MEL-5; COLO 205; NCI-H226; SK-MEL-2; UACC-257; HL-60; HT-29; LOX IMVI; SF-268; CCRF-CEM; SK-MEL-28; HCC 2998; A498; HOP-92; UO-31; SW-620; MDA-MB-231; HCT-116.
Holding throughout (assay): NCI anticancer screen, dose series, 48 h

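All cell lines were grown in 96-well plates and treated with compound for 48 hours. The concentration for 50% growth inhibition is given as GI50.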 Activity calls are given as the source filed them. Rule as the data show it: active = GI50 up to about 1.1 µM and inactive = higher. Bounds are passed on as bounds.

Regarding `c1ccc(/N=C2\SC(=NNc3ccccc3)S\C2=N/c2ccccc2)cc1`, the GI50 with Hs-578T was 32.8 µM (inactive); in the experiment on DU-145, 62.2 µM (inactive); in the experiment with SK-MEL-5, 44.9 µM (inactive); with COLO 205, 28.7 µM (inactive); in the experiment on NCI-H226 it was 48.1 µM (inactive); in the experiment on SK-MEL-2, 8.18 µM (inactive). Moreover, the GI50 with UACC-257 was 65.5 µM (inactive); in the experiment on HL-60, > 100 µM (inactive); with HT-29, 45.4 µM (inactive); in the experiment on LOX IMVI, 13 µM (inactive); with SF-268 it was > 100 µM (inactive); in the experiment on CCRF-CEM, > 100 µM (inactive). The GI50 in the experiment with SK-MEL-28 is > 100 µM (inactive); in the experiment with HCC 2998, 37.8 µM (inactive); in the experiment on A498 it was > 100 µM (inactive); with HOP-92 it was 70.8 µM (inactive); with UO-31, > 100 µM (inactive); in the experiment with SW-620 it was > 100 µM (inactive). Further, the GI50 with MDA-MB-231 was > 100 µM (inactive); in the experiment with HCT-116 it was 50.4 µM (inactive).

As for `CCOC(=O)/C(C#N)=C(/NNc1ccccc1)c1ccncc1C(=O)O`, the GI50 is > 100 µM (inactive) with Hs-578T; > 42.7 µM (inactive) in the experiment on DU-145; 9.82 µM (inactive) in the experiment on SK-MEL-5; 4.37 µM (inactive) with COLO 205; > 100 µM (inactive) in the experiment with NCI-H226; > 75.2 µM (inactive) in the experiment with SK-MEL-2. The GI50 was 26.2 µM (inactive) with UACC-257; 2.75 µM (inactive) with HL-60; > 63.5 µM (inactive) in the experiment on HT-29; 2.81 µM (inactive) with LOX IMVI; > 100 µM (inactive) in the experiment on SF-268; > 38.2 µM (inactive) with CCRF-CEM. Also, the GI50 was > 39.1 µM (inactive) in the experiment on SK-MEL-28; > 22.4 µM (inactive) with HCC 2998; > 100 µM (inactive) in the experiment on A498; > 100 µM (inactive) with HOP-92; 4.49 µM (inactive) in the experiment with UO-31; 3.27 µM (inactive) in the experiment on SW-620. The GI50 in the experiment on MDA-MB-231 and in the experiment on HCT-116 was > 100 µM (inactive) each time.

On to `Oc1ccc2c(c1)OCC(O)(c1ccccc1O)C2` (stereo not given), for which the GI50 in the experiment with Hs-578T is 97.5 µM (inactive); in the experiment on DU-145, > 100 µM (inactive); with SK-MEL-5 it was > 100 µM (inactive); with COLO 205 it was > 100 µM (inactive); with NCI-H226, > 100 µM (inactive); in the experiment on SK-MEL-2, > 100 µM (inactive). Also, the GI50 with UACC-257, with HL-60, in the experiment with HT-29, in the experiment with LOX IMVI, with SF-268 and with CCRF-CEM was > 100 µM (inactive) in each case. Besides, the GI50 in the experiment on SK-MEL-28, in the experiment with HCC 2998, with A498, with HOP-92, with UO-31 and with SW-620 was > 100 µM (inactive) in each case. Besides, the GI50 with MDA-MB-231 and in the experiment on HCT-116 was > 100 µM (inactive) throughout.

Turning to `C=C(C)C1CC2(C)C(C)CC(OC(=O)/C(C)=C\C)CC2C(OC(=O)/C(C)=C\C)C1O` (stereo not given), the GI50 with Hs-578T is 34.7 µM (inactive); with DU-145, 66.8 µM (inactive); with SK-MEL-5, 15.6 µM (inactive); in the experiment on COLO 205 it was 22.1 µM (inactive); with NCI-H226, > 100 µM (inactive); with SK-MEL-2, > 100 µM (inactive). Besides, the GI50 was 89.1 µM (inactive) in the experiment on UACC-257; 21.4 µM (inactive) in the experiment on HL-60; 35.8 µM (inactive) with HT-29; 38.6 µM (inactive) in the experiment on LOX IMVI; 66.4 µM (inactive) in the experiment with SF-268; 20.8 µM (inactive) in the experiment on CCRF-CEM. Also, the GI50 is > 100 µM (inactive) in the experiment with SK-MEL-28; > 100 µM (inactive) with HCC 2998; > 100 µM (inactive) in the experiment with A498; 51.2 µM (inactive) in the experiment on HOP-92; 39.8 µM (inactive) with UO-31; 61 µM (inactive) in the experiment with SW-620. Further, the figures for the GI50 in the experiment on MDA-MB-231 and with HCT-116 were > 100 µM (inactive) and 56.1 µM (inactive), respectively.

Regarding `NC(=O)NC(=O)Nc1ccc(Br)cc1`, the GI50 in the experiment with Hs-578T was > 100 µM (inactive); with DU-145 it was > 100 µM (inactive); in the experiment on SK-MEL-5 it was 7.67 µM (inactive); with COLO 205 it was 11.3 µM (inactive); in the experiment with NCI-H226 it was 21.5 µM (inactive); in the experiment with SK-MEL-2, 13.2 µM (inactive). For the same molecule, the GI50 is > 27.1 µM (inactive) in the experiment with UACC-257; 4.34 µM (inactive) in the experiment with HL-60; 3.46 µM (inactive) in the experiment with HT-29; 8.45 µM (inactive) in the experiment with LOX IMVI; > 6.93 µM (inactive) with SF-268; > 4.65 µM (inactive) in the experiment on CCRF-CEM. In addition, the GI50 was 6.14 µM (inactive) in the experiment on SK-MEL-28; > 21.9 µM (inactive) with HCC 2998; 9.79 µM (inactive) in the experiment on A498; > 100 µM (inactive) in the experiment with HOP-92; 22.8 µM (inactive) in the experiment on UO-31; > 11.5 µM (inactive) in the experiment with SW-620. Besides, the GI50 is > 16.6 µM (inactive) in the experiment on MDA-MB-231 and 17.3 µM (inactive) in the experiment on HCT-116.

For the molecule `CC(=O)c1ccc2c(c1)CC1(C2)Cc2ccccc2C1=O` (stereo not given), the GI50 is 39.8 µM (inactive) with Hs-578T; > 100 µM (inactive) in the experiment on DU-145; 21.8 µM (inactive) with SK-MEL-5; 34 µM (inactive) in the experiment with COLO 205; 85.3 µM (inactive) with NCI-H226; 71 µM (inactive) in the experiment with SK-MEL-2. Further, the GI50 in the experiment with UACC-257 is 15.5 µM (inactive); in the experiment on HL-60 it was 25.1 µM (inactive); with HT-29 it was 14.6 µM (inactive); in the experiment on LOX IMVI it was 36.1 µM (inactive); with SF-268, 74 µM (inactive); with CCRF-CEM, 29.5 µM (inactive). For the same molecule, the GI50 with SK-MEL-28 is 64.3 µM (inactive); in the experiment with HCC 2998, 40.6 µM (inactive); in the experiment with A498, > 100 µM (inactive); with HOP-92, 22.4 µM (inactive); with UO-31, 42.4 µM (inactive); in the experiment with SW-620, > 100 µM (inactive). For the same molecule, the GI50 with MDA-MB-231 was 57.3 µM (inactive); in the experiment with HCT-116, 44.1 µM (inactive).

Take `S=c1ssc2c3ssc(=S)c3n(Cc3ccccc3)c12`: the GI50 in the experiment on Hs-578T was > 100 µM (inactive); in the experiment on DU-145, 54 µM (inactive); in the experiment on SK-MEL-5 it was > 100 µM (inactive); in the experiment on COLO 205, > 100 µM (inactive); with NCI-H226, > 100 µM (inactive); with SK-MEL-2, > 100 µM (inactive). The GI50 with UACC-257 was > 100 µM (inactive); with HL-60 it was > 100 µM (inactive); in the experiment with HT-29, > 100 µM (inactive); in the experiment with LOX IMVI, 43.2 µM (inactive); with SF-268, 59.2 µM (inactive); with CCRF-CEM, 17.2 µM (inactive). The GI50 is > 100 µM (inactive) in the experiment with SK-MEL-28; > 100 µM (inactive) with HCC 2998; > 100 µM (inactive) in the experiment on A498; > 100 µM (inactive) in the experiment with HOP-92; 20.3 µM (inactive) in the experiment with UO-31; > 100 µM (inactive) in the experiment with SW-620. Besides, the GI50 with MDA-MB-231 and in the experiment on HCT-116 was > 100 µM (inactive) in each case.

On to `CNC(=O)N(C1=NCC(C)S1)c1ccc(C)c(C)c1` (stereo not given), for which the GI50 in the experiment on Hs-578T is 4.31 µM (inactive); in the experiment with DU-145, 7.5 µM (inactive); with SK-MEL-5, 4.08 µM (inactive); in the experiment with COLO 205 it was 3.56 µM (inactive); in the experiment with NCI-H226, 4.6 µM (inactive); with SK-MEL-2, 1.87 µM (inactive). For the same molecule, the GI50 in the experiment on UACC-257 is 16.1 µM (inactive); in the experiment with HL-60, 1.17 µM (inactive); with HT-29, 2.52 µM (inactive); in the experiment on LOX IMVI, 5.09 µM (inactive); in the experiment with SF-268 it was 4.37 µM (inactive); in the experiment on CCRF-CEM, 2.39 µM (inactive). For the same molecule, the GI50 was 8.49 µM (inactive) with SK-MEL-28; 4.28 µM (inactive) in the experiment with HCC 2998; 2.99 µM (inactive) in the experiment on A498; 5.78 µM (inactive) with HOP-92; 8.26 µM (inactive) with UO-31; 3.48 µM (inactive) with SW-620. In addition, the GI50 with MDA-MB-231 was 12.1 µM (inactive); in the experiment on HCT-116, 3.5 µM (inactive).

Turning to `O=C1C2CC[C@@H]3C(=O)C(Cl)(Cl)[C@@H]3CCC2C1(Cl)Cl` (stereo not given in full), the GI50 in the experiment on Hs-578T was > 100 µM (inactive); in the experiment with DU-145, > 100 µM (inactive); in the experiment with SK-MEL-5, > 100 µM (inactive); in the experiment on COLO 205, 71 µM (inactive); in the experiment with NCI-H226, > 100 µM (inactive); in the experiment with SK-MEL-2 it was > 100 µM (inactive). Besides, the GI50 was > 100 µM (inactive) in the experiment with UACC-257; 6.17 µM (inactive) with HL-60; > 100 µM (inactive) in the experiment on HT-29; 44 µM (inactive) in the experiment on LOX IMVI; > 100 µM (inactive) in the experiment with SF-268; 23.3 µM (inactive) with CCRF-CEM. Further, the GI50 in the experiment with SK-MEL-28, in the experiment on HCC 2998, in the experiment on A498, with HOP-92, in the experiment with UO-31 and in the experiment with SW-620 was > 100 µM (inactive) throughout. Also, the GI50 in the experiment with MDA-MB-231 was > 100 µM (inactive); with HCT-116 it was > 86.5 µM (inactive).

On to `Nc1nn2c(C(Br)Br)cc(C(Br)Br)nc2c1[N+](=O)[O-]`, for which the GI50 is 2.36 µM (inactive) in the experiment on Hs-578T; 1.68 µM (inactive) in the experiment on DU-145; 1.49 µM (inactive) with SK-MEL-5; 0.659 µM (active) with COLO 205; 2.21 µM (inactive) with NCI-H226; 1.89 µM (inactive) in the experiment on SK-MEL-2. Moreover, the GI50 in the experiment on UACC-257 is 1.32 µM (inactive); in the experiment on HL-60, 0.178 µM (active); in the experiment on HT-29, 0.766 µM (active); in the experiment with LOX IMVI, 0.269 µM (active); in the experiment with SF-268, 1.88 µM (inactive); in the experiment on CCRF-CEM it was 0.161 µM (active). The GI50 was 1.53 µM (inactive) with SK-MEL-28; 2.17 µM (inactive) with HCC 2998; 2.18 µM (inactive) with A498; 1.17 µM (inactive) in the experiment on HOP-92; 1.25 µM (inactive) in the experiment on UO-31; 0.244 µM (active) in the experiment with SW-620. Besides, the GI50 in the experiment on MDA-MB-231 is 1.6 µM (inactive); with HCT-116, 0.634 µM (active).
